Laboratory results published in the supplement of paper PMC5908809.

Columns and labels:
[1] = system: normal NK cells expanded with K562-aAPC; assay: percent inhibition of viability; higher = more inhibition; conditions: 72 h, IL-2 2.5 ng/mL
Procedure: (§1)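 Drug sensitivity and resistance testing on K562-aAPC-expanded normal NK cells: 5 concentrations (10-fold steps over a 10,000-fold range), 72 h at 37 °C, viability by CellTiter-Glo normalised to DMSO and benzethonium chloride controls; DSS from the fitted curve.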

DERL-7 (IL-2 2.5 ng/mL) [2] = assay: as above; conditions: 72 h
IMC-1 (IL-2 20 ng/mL) [3] = assay: as above; conditions: 72 h
KAI3 (IL-2 2.5 ng/mL) [4] = assay: as above; conditions: 72 h
KHYG-1 (IL-2 2.5 ng/mL) [5] = assay: as above; conditions: 72 h
NK-92 (IL-2 2.5 ng/mL) [6] = assay: as above; conditions: 72 h
NK-YS (IL-2 2.5 ng/mL) [7] = assay: as above; conditions: 72 h
NKL (IL-2 2.5 ng/mL) [8] = assay: as above; conditions: 72 h
SNK-6 (IL-2 2.5 ng/mL) [9] = assay: as above; conditions: 72 h
YT (IL-2 2.5 ng/mL) [10] = assay: as above; conditions: 72 h
[11] = system: normal primary NK cells, pool 1 (3 donors) (IL-2 2.5 ng/mL); assay: as above; conditions: 72 h
[12] = system: normal primary NK cells, pool 1 (3 donors), resting (IL-2 0 ng/mL); assay: as above; conditions: 72 h
[13] = system: normal primary NK cells, pool 2 (3 donors) (IL-2 2.5 ng/mL); assay: as above; conditions: 72 h
[14] = system: normal primary NK cells, pool 3 (3 donors) (IL-2 2.5 ng/mL); assay: as above; conditions: 72 h
[15] = system: normal NK cells expanded with K562-aAPC; assay: drug sensitivity score (DSS) (DSS units); higher = more sensitive; extreme values may be limits of the assay; conditions: 72 h; IL-2 2.5 ng/mL
Procedure: as §1

DERL-7 (IL-2 2.5 ng/mL) [16] = assay: as above; conditions: 72 h
IMC-1 (IL-2 20 ng/mL) [17] = assay: as above; conditions: 72 h
KAI3 (IL-2 2.5 ng/mL) [18] = assay: as above; conditions: 72 h
KHYG-1 (IL-2 2.5 ng/mL) [19] = assay: as above; conditions: 72 h
NK-92 (IL-2 2.5 ng/mL) [20] = assay: as above; conditions: 72 h
NK-YS (IL-2 2.5 ng/mL) [21] = assay: as above; conditions: 72 h
NKL (IL-2 2.5 ng/mL) [22] = assay: as above; conditions: 72 h
SNK-6 (IL-2 2.5 ng/mL) [23] = assay: as above; conditions: 72 h
YT (IL-2 2.5 ng/mL) [24] = assay: as above; conditions: 72 h
[25] = system: normal primary NK cells, pool 1 (3 donors) (IL-2 2.5 ng/mL); assay: as above; conditions: 72 h
[26] = system: normal primary NK cells, pool 1 (3 donors), resting (IL-2 0 ng/mL); assay: as above; conditions: 72 h
[27] = system: normal primary NK cells, pool 2 (3 donors) (IL-2 2.5 ng/mL); assay: as above; conditions: 72 h
[28] = system: normal primary NK cells, pool 3 (3 donors) (IL-2 2.5 ng/mL); assay: as above; conditions: 72 h

Cc1c2oc3c(C)ccc(C(=O)N[C@@H]4C(=O)N[C@H](C(C)C)C(=O)N5CCC[C@H]5C(=O)N(C)CC(=O)N(C)[C@@H](C(C)C)C(=O)O[C@@H]4C)c3nc-2c(C(=O)N[C@@H]2C(=O)N[C@H](C(C)C)C(=O)N3CCC[C@H]3C(=O)N(C)CC(=O)N(C)[C@@H](C(C)C)C(=O)O[C@@H]2C)c(N)c1=O [Dactinomycin] (max concentration tested 1000 nM)
percent inhibition of viability [%]
Conditions	0.1 nM	1 nM	10 nM	100 nM	1000 nM
DERL-7 (IL-2 2.5 ng/mL) [2]	-0.87	44.9	83	101	101
IMC-1 (IL-2 20 ng/mL) [3]	-6.77	-14.7	38.1	100	101
KAI3 (IL-2 2.5 ng/mL) [4]	-6.19	34.4	52.9	103	107
KHYG-1 (IL-2 2.5 ng/mL) [5]	-3.25	36.4	71	106	108
NK-92 (IL-2 2.5 ng/mL) [6]	-12.8	-6.87	22	87.4	105
NK-YS (IL-2 2.5 ng/mL) [7]	5.62	72.3	94.4	106	107
NKL (IL-2 2.5 ng/mL) [8]	-4.78	72.4	84.8	108	110
SNK-6 (IL-2 2.5 ng/mL) [9]	33.9	71.2	81.7	99.6	78.6
YT (IL-2 2.5 ng/mL) [10]	0.56	51	97.4	107	108
[1]	1.4	5.24	28.6	101	101
[11]	5.89	7.37	35.9	98.4	98.6
[12]	-15.9	13.6	67.8	91.7	90.8
[13]	-13.2	8.51	64.2	94.5	95.7
[14]	-10.8	5.15	39.6	98.5	99.8

Conditions	drug sensitivity score
DERL-7 (IL-2 2.5 ng/mL) [16]	33.6
IMC-1 (IL-2 20 ng/mL) [17]	23.2
KAI3 (IL-2 2.5 ng/mL) [18]	26.6
KHYG-1 (IL-2 2.5 ng/mL) [19]	30.4
NK-92 (IL-2 2.5 ng/mL) [20]	18.8
NK-YS (IL-2 2.5 ng/mL) [21]	39.5
NKL (IL-2 2.5 ng/mL) [22]	38.8
SNK-6 (IL-2 2.5 ng/mL) [23]	38.1
YT (IL-2 2.5 ng/mL) [24]	36.5
[15]	22.2
[25]	22
[26]	25.8
[27]	25.3
[28]	22.5

COc1cc(O)c2c(c1)/C=C/C[C@H](O)[C@H](O)C(=O)/C=C\C[C@H](C)OC2=O [(5Z)-7-Oxozeaenol] (max concentration tested 10000 nM)
percent inhibition of viability [%]
Conditions	1 nM	10 nM	100 nM	1000 nM	10000 nM
DERL-7 (IL-2 2.5 ng/mL) [2]	-5.8	2.14	10.7	66.3	101
IMC-1 (IL-2 20 ng/mL) [3]	-4.21	-3.28	-4.71	-7.11	48.9
KAI3 (IL-2 2.5 ng/mL) [4]	0.25	0.75	5.8	59	105
KHYG-1 (IL-2 2.5 ng/mL) [5]	0.21	-0.62	3.17	83.9	109
NK-92 (IL-2 2.5 ng/mL) [6]	-20.1	-30	-17.5	26.2	104
NK-YS (IL-2 2.5 ng/mL) [7]	-3.96	-2.39	8.28	41.9	105
NKL (IL-2 2.5 ng/mL) [8]	-8.24	17.5	38.5	80	110
SNK-6 (IL-2 2.5 ng/mL) [9]	-2.4	-7.72	-14.8	23.5	95
YT (IL-2 2.5 ng/mL) [10]	-2.81	-5.3	6.58	46.2	105
[1]	-4.98	-3.35	-1.51	18.7	94.8
[11]	-6.25	6.9	22.8	45.6	98.5
[12]	-25.1	10.7	9.8	54.5	92
[13]	-15.9	1.06	2.6	22.8	96.8
[14]	-13.2	9.87	4.11	13.6	98.2

Conditions	drug sensitivity score
DERL-7 (IL-2 2.5 ng/mL) [16]	14.1
IMC-1 (IL-2 20 ng/mL) [17]	2.11
KAI3 (IL-2 2.5 ng/mL) [18]	12.6
KHYG-1 (IL-2 2.5 ng/mL) [19]	15.6
NK-92 (IL-2 2.5 ng/mL) [20]	9.5
NK-YS (IL-2 2.5 ng/mL) [21]	11
NKL (IL-2 2.5 ng/mL) [22]	20.5
SNK-6 (IL-2 2.5 ng/mL) [23]	8.87
YT (IL-2 2.5 ng/mL) [24]	11.4
[15]	8.28
[25]	12.1
[26]	12
[27]	8.91
[28]	7.72
